From patent publication US12492403B2, “Aptamers and the use thereof in the treatment of cancer” (FUNDACIÓN PARA LA INVESTIGACIÓN BIOMÉDICA DEL HOSPITAL …, priority 2018, dated 2025)

Columns and labels:
MCF7 cells = assay: MTT activity assay, aptamers transfected with Lipofectamine 2000; assay type: cell-based, human
Method: (§1) FIG. 3. Effect of the aptamers on MTT activity of MCF7 and MDA-MB-231 cells. The cells were seeded in 96-well plates at a density of 10^4 cells/well. After 16-24 hours, they were transfected with aptamers apMNKQ1, apMNKQ2, apMNKQ3, and apMNKQ4 at 250 nM for 48 hours after which MTT activity assays were performed. The bars represent the mean±SEM of 3-6 independent experiments (*p<0.05, **p<0.01, and ***p<0.001 with respect to the control aptamer AT).
(§2) FIGS. 8A-8C. Effect of aptamer apMNKQ2 on MTT activity of breast cell lines. MCF7, MDA-MB-231, and MDA-MB-468 cells were seeded in 96-well plates at a density of 10^4 cells/well. […] The graphs represent the means±SEM of 3 independent experiments (*p<0.05, **p<0.01, and ***p<0.001 with respect to the control AT).
(§3) The Lipofectamine™ 2000 system (Invitrogen, USA) was used to treat cells with the different aptamers. To prepare the DNA-lipofectamine complex, lipofectamine and DNA were separately diluted in opti-MEM (Gibco, USA) and left to incubate at room temperature for 5 minutes. They were then mixed to form lipofectamine-DNA complexes and incubated for 20 minutes at room temperature. Finally, the mixture was added to the cells that had been washed twice with antibiotic-free medium to prevent the interference thereof with lipofectamine. The cells were incubated at 37° C. for 5 hours, after which the reagent was removed and a complete medium was added.
(§4) MTT activity. The cells were seeded in 96-well plates and after having been transfected, the culture medium was removed and 100 μL/well of MTT at 1 mg/ml in culture medium were added. The plates were incubated for 90 minutes in an incubator with a moisture-saturated environment at 37° C. and 5% CO2/[…] and 100 μL/well of a lysis solution (10% SDS and 10 mM HCl) were added for dissolving the crystals. After 48 hours, the reduction of MTT was determined by means of spectrophotometry in Infinite F200 (TECAN, Switzerland) at 540 nm.
(§5) The results were expressed as the percentage of viability with respect to the control or in absorbance units.

MDA-MB-231 cells = assay: as above; assay type: cell-based, human
Method: as §1, §2, §3, §4, §5

MDA-MB-468 cells = assay: as above; assay type: cell-based, human; details: MDA-MB-468, MTT activity at 48 hours, 0 to 500 nM
Method: as §2, §3
MTT activity. The cells were seeded in 96-well plates and after having been transfected, the culture medium was removed and 100 μL/well of MTT at 1 mg/ml in culture medium were added. […] After 48 hours, the reduction of MTT was determined by means of spectrophotometry in Infinite F200 (TECAN, Switzerland) at 540 nm.
as §5

[1] = test system: MCF7, MDA-MB-231, and MDAMB-468 cells; assay: Aptamer penetration into cells (Alexa-488 fluorescence microscopy); assay type: cell-based, human; details: Alexa fluor 488-conjugated aptamer 250 nM added to medium, 24 hours, compared with lipofectamine transfection
Method: FIGS. 16A & 16B. Study of aptamer apMNKQ2 penetration into cells. MCF7, MDA-MB-231, and MDAMB-468 cells were seeded in 24-well plates with a cover glass at a density of 3×10^4 cells/well, with the transfection/addition of apMNKQ2 labeled with Alexa-488 at 250 nM at 24 hours. Twenty-four hours after transfection, the cells were fixed, stained with Hoechst, and mounted on slides with Prolong™ mounting medium. The number refers to the intensity of the aptamer measured with the imageJ program and expressed in arbitrary units.
To analyze cell penetration by apMNKQ2, 3×10^4 cells/well were seeded on cover glasses and the structured, Alexa fluor 488-conjugated aptamer at 250 nM was added to the cell medium at 24 hours. In parallel, the aptamer was transfected with lipofectamine at the same concentration. After 24 hours, the cells were fixed and stained with Hoechst.

[2] = test system: orthotopic xenograft of 4T1 cells; assay: In vivo efficacy in metastatic orthotopic 4T1 mouse model; set-up: species or system BALBc mice; details: 3.6 mg/kg intravenously three times a week
Method: FIG. 21A-21E. In vivo efficacy of apMNKQ2 in a mouse metastatic model with an orthotopic xenograft of 4T1 cells. (A) Effect of apMNKQ2 aptamer on the proliferation of 4T1 cells (mouse breast tumor line). 4T1 cells were seeded in p96 at a density of 1.5×10^3 cells/well. […] The graph (FIG. 21A) represents the means±SEM of 3 independent experiments. (B) Effect of apMNKQ2 aptamer on migration and invasion of 4T1 cells. Cells were seeded in p6 at a density of 2×10^5 cells/well and transfected with 500 nM apMNKQ2 at 24 hours. At 6 hours they were deprived of serum, and after 24 hours they were collected and re-seeded (4×10^4 cells/well) in a transwell […]. At 24 hours (migration) or 48 h (invasion), the transwell membranes were stained with Hoechst and the cells that had passed through the fluorescence microscopy were quantified. Values (FIG. 21B) represent the mean±SEM of 2-3 independent experiments. In vivo efficacy of apMNKQ2 in a mouse metastatic model with an orthotopic xenograft of 4T1 cells. (C) Evolution of mouse weight on the days of treatment with apMNKQ2 (FIG. 21C). (D) Relative tumor volume (RTV) throughout the days of treatment (FIG. 21D). (E) Number of lung metastases (FIG. 21E). The number of metastases is analyzed by the reverse staining method (with Chinese ink) and the metastases grouped according to their size in four groups (0.5, 1, 2 and >2). The stacked bars correspond to each group and represent the mean±SEM of 8-9 animals (*p<0.05 with respect to the control group).
The anti-tumour activity and the effect on and spontaneous metastasis of aptamers in BALBc mice bearing ortothopically […] 4T1 breast tumours. […] As monitoring parameters, the tumor volume, assuming they are ellipsoids, and the weight of the animals were measured. […]
To study the ability of apMNKQ2 to reduce metastasis in vivo, an orthotopic xenograft model with a murine tumor line of triple negative breast cancer, 4T1, was used. […] First, the effect of apMNKQ2 on 4T1 cells in vitro was analyzed. […]

With “5′TGGGGTGGGCGGGCGGGGGTGGGGGTGGT-3′ (DNA, backbone and methylation of C not given here; further chemistry not fully specified) [apMNKQ2]” as the substance, how does the GI50 (MCF7 cells; MCF7, MTT activity at 48 hours, 0 to 500 nM) read?
The GI50 was 42 nM.

What about the “cell proliferation (MTT activity) reduced to” value (MCF7 cells; MCF7, aptamer 250 nM, 48 hours after transfection) of the same substance?
The value was 51%.

What about the GI50 (MDA-MB-231 cells; MDA-MB-231, MTT activity at 48 hours, 0 to 500 nM) of the same substance?
The GI50 was 144 nM.

What about the “cell proliferation (MTT activity) reduced to” value (MDA-MB-231 cells; MDA-MB-231, aptamer 250 nM, 48 hours after transfection) of the same substance?
The value was 36%.

What about the GI50 (MDA-MB-468 cells) of the same substance?
Its GI50 is 19 nM.

And the “penetration into cells without transfectant” value [1]?
Its value is “capable of only entering the cells, although with a lower intensity”.

What about the “size of the tumors (relative tumor volume)” value ([2]; 18 days) of the same substance?
The value was “does not produce changes”.

What about the “weight of the mice” value ([2]; 18 days) of the same substance?
Its value is “does not produce changes”.

What about the “number of lung metastasis” value ([2]; statistically significant for metastasis of 2 mm) of the same substance?
Its value is “decreased”.
